Test results published in US8466200B2, “2-adamantylurea derivatives as selective 11β-HSD1 inhibitors” (Merck Patent GmbH, priority 2005, dated 2013).
Read-outs that look alike come from different tables or passages of the source. Values belong to the molecule of their own block, whether it stands above or below them.

What was measured:
[1] = target: T1, human 11-beta HSD1 (Homo sapiens, UniProt P28845); assay: 11 beta-HSD1 enzyme assay (HTRF cortisol), human recombinant enzyme; type: biochemical; settings: read-out: Inhibition of human 11-beta HSD1 IC50
T1 construct: made in house; host or cells: E. coli
Method: (§1) Human recombinant 11 beta-hydroxysteroid dehydrogenase type 1 (11 beta-HSD1) and type 2 (11 beta-HSD2) enzymes were expressed in E. coli. Rat and mice liver microsome fractions were purchased from TEBU.
(§2) The 11 beta-HSD1 enzyme assay was carried out in 96 well microtiter plates in a total volume of 100 μl containing 30 mM HEPES buffer, pH 7,4 with 1 mM EDTA, substrate mixture cortisone/NADPH (200 nM/200 μM), G-6-P (1 mM) and inhibitors in serial dilutions. Reactions were initiated by addition of 10 μl 11beta-HSD1 (3 μg) from E. coli, either as microsome fractions from rat or mice liver (2.5 μg). Following mixing, the plates were shaken for 150 minutes at 37° C. The reactions were terminated with 100 Acid-18beta glycyrrhetinic stop solution. Determinations of cortisol levels in 11 beta-HSD1 preparations were monitored by HTRF (HTRF cortisol assay from C is bio international).

[2] = target: mouse 11-beta HSD1 (Mus musculus, UniProt P50172); assay: 11 beta-HSD1 enzyme assay, mice liver microsome fractions
Method: as §1, §2

[3] = target: rat 11-beta HSD1 (Rattus norvegicus, UniProt P16232); assay: 11 beta-HSD1 enzyme assay, rat liver microsome fractions; type: biochemical; settings: read-out: Inhibition of rat 11-beta HSD1 IC50
Method: as §1, §2

[4] = target: T2, human 11-beta HSD2 (Homo sapiens, UniProt P80365); assay: 11 beta-HSD2 enzyme assay, human recombinant enzyme; type: biochemical; settings: selectivity table, Example 10; read-out: Inhibition of human 11-beta HSD2 IC50
T2 construct: made in house; host or cells: E. coli
T2 sequence (P80365 1-405): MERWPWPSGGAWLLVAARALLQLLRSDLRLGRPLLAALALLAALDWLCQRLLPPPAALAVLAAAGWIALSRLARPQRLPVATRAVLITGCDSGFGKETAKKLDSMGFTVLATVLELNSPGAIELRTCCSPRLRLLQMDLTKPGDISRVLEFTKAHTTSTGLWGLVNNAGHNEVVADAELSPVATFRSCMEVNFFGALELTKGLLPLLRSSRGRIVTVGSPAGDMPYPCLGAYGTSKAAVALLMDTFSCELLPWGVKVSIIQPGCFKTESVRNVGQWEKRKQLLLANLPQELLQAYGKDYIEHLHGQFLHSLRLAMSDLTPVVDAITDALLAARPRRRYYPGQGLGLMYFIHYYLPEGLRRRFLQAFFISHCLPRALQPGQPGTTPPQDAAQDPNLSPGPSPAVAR
Source text: This assay was similarly applied to 11beta-HSD2, whereby cortisol, NAD, and carbenoxolon were used as the substrate, cofactor and stopping agent, respectively.

[5] = recombinant enzyme from E. coli

Sequence of rat 11-beta HSD1 (P16232 whole entry): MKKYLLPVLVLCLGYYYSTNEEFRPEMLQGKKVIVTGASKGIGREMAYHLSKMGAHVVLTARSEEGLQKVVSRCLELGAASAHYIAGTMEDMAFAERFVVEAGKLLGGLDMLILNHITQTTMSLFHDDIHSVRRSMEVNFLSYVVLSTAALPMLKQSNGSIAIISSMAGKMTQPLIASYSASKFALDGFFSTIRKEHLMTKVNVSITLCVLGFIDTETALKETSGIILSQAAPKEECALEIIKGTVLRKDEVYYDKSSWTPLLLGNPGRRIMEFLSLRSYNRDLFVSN
Sequence of mouse 11-beta HSD1 (P50172 whole entry): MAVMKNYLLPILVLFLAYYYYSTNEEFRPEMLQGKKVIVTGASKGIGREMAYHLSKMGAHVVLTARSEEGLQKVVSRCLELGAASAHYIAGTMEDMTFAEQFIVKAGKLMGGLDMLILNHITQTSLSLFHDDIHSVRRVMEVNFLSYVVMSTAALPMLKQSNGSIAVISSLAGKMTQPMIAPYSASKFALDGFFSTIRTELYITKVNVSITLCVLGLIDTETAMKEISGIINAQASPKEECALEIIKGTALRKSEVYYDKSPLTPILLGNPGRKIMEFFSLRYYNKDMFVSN
T1 sequence (P28845 whole entry): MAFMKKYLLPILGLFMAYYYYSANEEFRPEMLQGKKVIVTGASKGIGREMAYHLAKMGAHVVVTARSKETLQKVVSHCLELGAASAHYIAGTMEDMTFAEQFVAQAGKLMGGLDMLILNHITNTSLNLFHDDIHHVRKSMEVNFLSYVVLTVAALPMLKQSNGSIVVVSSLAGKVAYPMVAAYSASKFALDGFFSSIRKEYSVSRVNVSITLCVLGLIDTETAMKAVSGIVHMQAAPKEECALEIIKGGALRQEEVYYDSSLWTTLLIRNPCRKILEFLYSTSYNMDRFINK

SMILES: C[C@@H](NC(=O)NC1C2CC3CC(C2)CC1C3)c1ccccc1 (some centres unmarked) [drawing 15]
IC50 ([1]; selectivity table, Example 10): 16 nM
IC50 [4]: > 10000 nM

SMILES: Cc1cc(OCCN2CCCCC2)ccc1NC(=O)NC1C2CC3CC(C2)CC1C3 (centres unmarked) [Ex 8, 1-Adamantan-2-yl-3-(2-methyl-4-(2-piperidin-1-yl-ethoxyl)phenyl)-urea]
IC50 [3]: 1460 nM
IC50 ([2]; read-out: Inhibition of mouse 11-beta HSD1 IC50, mice liver microsome fractions): 1240 nM

SMILES: COc1ccc(NC(=O)NC2C3CC4CC(C3)CC2C4)c(C)c1 (centres unmarked) [Ex 1, 1-Adamantan-2-yl-3-(4-methoxy-2-methyl-phenyl)-urea]
IC50 [1, 5]: 15 nM
IC50 [3]: 190 nM
melting point: 186 °C
IC50 [2]: 97 nM

SMILES: O=C(NC1CCCC1)NC1C2CC3CC(C2)CC1C3 (centres unmarked) [drawing 14]
IC50 ([1]; selectivity table, Example 10): 370 nM
IC50 [4]: > 10000 nM

SMILES: COc1ccc(NC(=O)NC2C3CC4CC(C3)CC2C4)c(C)c1 (centres unmarked) [drawing 13]
IC50 ([1]; selectivity table, Example 10): 12 nM
IC50 [4]: > 10000 nM

SMILES: Cc1cc(O)ccc1NC(=O)NC1C2CC3CC(C2)CC1C3 (centres unmarked) [Ex 7, 1-Adamantan-2-yl-3-(4-hydroxy-2-methyl-phenyl)-urea]
melting point: 212 to 214 °C

SMILES: Cc1c(NC(=O)NC2C3CC4CC(C3)CC2C4)cccc1C(=O)O (centres unmarked) [Ex 6, 3-(3-Adamantan-2-yl-ureido)-2-methyl-benzoic acid]
IC50 [1, 5]: 550 nM

Results, then the molecule that gave them:

IC50 [1, 5]: 67 nM
SMILES: CCc1cccc(NC(=O)NC2C3CC4CC(C3)CC2C4)c1 (centres unmarked) [Ex 1-20, 1-Adamantan-2-yl-3-(3-ethyl-phenyl)-urea]

IC50 [1, 5]: 43 nM
SMILES: O=C(NCCc1cccs1)NC1C2CC3CC(C2)CC1C3 (centres unmarked) [Ex 1-16, 1-Adamantan-2-yl-3-(2-thiophen-2-yl-ethyl)-urea]

IC50 [1, 5]: 2100 nM
IC50 [2]: 3440 nM
SMILES: O=C(NCc1ccco1)NC1C2CC3CC(C2)CC1C3 (centres unmarked) [Ex 1-44, 1-Adamantan-2-yl-3-furan-2-ylmethyl-urea]

IC50 [1, 5]: 57 nM
SMILES: O=C(Nc1ccc2ccccc2c1)NC1C2CC3CC(C2)CC1C3 (centres unmarked) [Ex 1-23, 1-Adamantan-2-yl-3-naphthalen-2-yl-urea]

IC50 [1, 5]: 720 nM
IC50 [3]: 1320 nM
SMILES: O=C(NC1C2CC3CC(C2)CC1C3)N1CCCC1 (centres unmarked) [Ex 3-3, Pyrrolidine-1-carboxylic acid adamantan-2-ylamide]

IC50 [1, 5]: 740 nM
SMILES: Cc1cccc(CNC(=O)NC2C3CC4CC(C3)CC2C4)c1 (centres unmarked) [Ex 1-34, 1-Adamantan-2-yl-3-(3-methyl-benzyl)-urea]

IC50 [1, 5]: 340 nM
SMILES: O=C(Nc1ccccc1C(F)(F)F)NC1C2CC3CC(C2)CC1C3 (centres unmarked) [Ex 1-3, 1-Adamantan-2-yl-3-(2-trifluoromethyl-phenyl)-urea]

IC50 [1, 5]: 270 nM
SMILES: COc1cc(NC(=O)NC2C3CC4CC(C3)CC2C4)cc(OC)c1 (centres unmarked) [Ex 1-7, 1-Adamantan-2-yl-3-(3,5-dimethoxy-phenyl)-urea]

IC50 [1, 5]: 430 nM
IC50 [3]: 8 nM
IC50 [2]: 440 nM
SMILES: O=C(NCCc1ccccc1)NC1C2CC3CC(C2)CC1C3 (centres unmarked) [Ex 1-12, 1-Adamantan-2-yl-3-phenethyl-urea]

IC50 [1, 5]: 16 nM
SMILES: C[C@@H](NC(=O)NC1C2CC3CC(C2)CC1C3)c1ccccc1 (stereo partly drawn) [Ex 1-61, 1-Adamantan-2-yl-3-((R)-1-phenyl-ethyl)-urea]

IC50 [1, 5]: 370 nM
IC50 [3]: 47 nM
IC50 [2]: 355 nM
SMILES: O=C(NC1CCCC1)NC1C2CC3CC(C2)CC1C3 (centres unmarked) [Ex 1-39, 1-Adamantan-2-yl-3-cyclopentyl-urea]

IC50 [1, 5]: 670 nM
SMILES: O=C(Nc1cc(Cl)nc(Cl)c1)NC1C2CC3CC(C2)CC1C3 (centres unmarked) [Ex 1-26, 1-Adamantan-2-yl-3-(2,6-dichloro-pyridin-4-yl)-urea]
